Measured values as given in PubChem BioAssay AID330 (DTP/NCI, 2004).
“And” between values parts separate entries of the source, which are not always exact repeats. Equal entries are not always repeated. Toxic doses and inconclusive results are not listed.

System: P388 leukemia ip, CD2F1 mice, survival T/C
Assay: NCI In Vivo Anticancer Drug Screen. Data for tumor model P388 Leukemia (intraperitoneal) in CD2F1 (CDF1) mice
Settings: endpoint: median survival time, higher = longer survival
How it was run: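 Mice carrying the transplanted tumor received test compound or vehicle. Survival was recorded in each group, and the value is the treated-group measurement divided by that of the vehicle-treated control group.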

[1] = dose: 50.0 mg/kg/injection, schedule: Q01DX009 (ip), vehicle: saline
[2] = dose: 100.0 mg/kg/injection, schedule: Q01DX009 (ip), vehicle: saline
[3] = dose: 200.0 mg/kg/injection, schedule: Q01DX009 (ip), vehicle: saline
[4] = dose: 25.0 mg/kg/injection, schedule: Q01DX005 (ip), vehicle: saline with Tween-80
[5] = dose: 50.0 mg/kg/injection, schedule: Q01DX005 (ip), vehicle: saline with Tween-80
[6] = dose: 100.0 mg/kg/injection, schedule: Q01DX005 (ip), vehicle: saline with Tween-80
[7] = dose: 60.0 mg/kg/injection, schedule: Q01DX005 (ip), vehicle: saline with Tween-80
[8] = dose: 120.0 mg/kg/injection, schedule: Q01DX005 (ip), vehicle: saline with Tween-80
[9] = dose: 240.0 mg/kg/injection, schedule: Q01DX005 (ip), vehicle: saline with Tween-80
[10] = dose: 50.0 mg/kg/injection, schedule: Q01DX009 (ip), vehicle: saline with Tween-80
[11] = dose: 100.0 mg/kg/injection, schedule: Q01DX009 (ip), vehicle: saline with Tween-80
[12] = dose: 25.0 mg/kg/injection, schedule: Q01DX005 (ip), vehicle: Klucel (hydroxypropylcellulose) (HPC)
[13] = dose: 50.0 mg/kg/injection, schedule: Q01DX005 (ip), vehicle: Klucel (hydroxypropylcellulose) (HPC)
[14] = dose: 100.0 mg/kg/injection, schedule: Q01DX005 (ip), vehicle: Klucel (hydroxypropylcellulose) (HPC)

`O=c1ccn(C2OC(CO)C(O)C2O)c(=O)[nH]1` (stereo unspecified) was tested, and the T/C (dose: 25.0 mg/kg/injection, schedule: Q01DX009 (ip), vehicle: water) was 100 % of control, the T/C (dose: 32.0 mg/kg/injection, schedule: Q01DX009 (ip), vehicle: Klucel (hydroxypropylcellulose) (HPC)) was 90 % of control and the T/C (dose: 32.0 mg/kg/injection, schedule: Q01DX009 (ip), vehicle: saline) was 86 % of control and 87 % of control. The T/C [1] was 108 % of control, the T/C (dose: 50.0 mg/kg/injection, schedule: Q01DX009 (ip), vehicle: water) was 100 % of control and the T/C (dose: 64.0 mg/kg/injection, schedule: Q01DX009 (ip), vehicle: Klucel (hydroxypropylcellulose) (HPC)) was 90 % of control. The T/C [2] was 94 % of control and 115 % of control, the T/C (dose: 100.0 mg/kg/injection, schedule: Q01DX009 (ip), vehicle: water) was 106 % of control and the T/C (dose: 128.0 mg/kg/injection, schedule: Q01DX009 (ip), vehicle: Klucel (hydroxypropylcellulose) (HPC)) was 88 % of control. For the same molecule, the T/C [3] was 94 % of control and 112 % of control, the T/C (dose: 200.0 mg/kg/injection, schedule: Q01DX009 (ip), vehicle: water) was 106 % of control and the T/C (dose: 256.0 mg/kg/injection, schedule: Q01DX009 (ip), vehicle: Klucel (hydroxypropylcellulose) (HPC)) was 98 % of control. For the same molecule, the T/C (dose: 400.0 mg/kg/injection, schedule: Q01DX009 (ip), vehicle: saline) was 103 % of control and 100 % of control, the T/C (dose: 400.0 mg/kg/injection, schedule: Q01DX009 (ip), vehicle: water) was 108 % of control and the T/C (dose: 512.0 mg/kg/injection, schedule: Q01DX009 (ip), vehicle: Klucel (hydroxypropylcellulose) (HPC)) was 98 % of control. For the same molecule, the T/C (dose: 800.0 mg/kg/injection, schedule: Q01DX009 (ip), vehicle: saline) was 98 % of control, the T/C (dose: 1024.0 mg/kg/injection, schedule: Q01DX009 (ip), vehicle: saline) was 100 % of control and 89 % of control and the T/C (dose: 1600.0 mg/kg/injection, schedule: Q01DX009 (ip), vehicle: saline) was 98 % of control.

For `COc1ccc(/C=N/NC(=O)c2ccc(OCc3nc4ccccc4[nH]3)cc2)cc1`, the T/C [4] was 100 % of control, the T/C [5] was 105 % of control and the T/C [6] was 100 % of control. For the same molecule, the T/C (dose: 200.0 mg/kg/injection, schedule: Q01DX005 (ip), vehicle: saline with Tween-80) was 100 % of control.

With `COC(=O)C1C(C)C2CCCCC2CC1(C)O` (stereo unspecified) the T/C (dose: 100.0 mg/kg/injection, schedule: Q04DX003 (ip), vehicle: Klucel (hydroxypropylcellulose) (HPC)) was 103 % of control, the T/C (dose: 200.0 mg/kg/injection, schedule: Q04DX003 (ip), vehicle: Klucel (hydroxypropylcellulose) (HPC)) was 112 % of control and the T/C (dose: 400.0 mg/kg/injection, schedule: Q04DX003 (ip), vehicle: Klucel (hydroxypropylcellulose) (HPC)) was 100 % of control.

With `COC(=O)C1(C2(C(=O)OC)NC(=S)NC(=O)C2C#N)CCCC1=O` (stereo unspecified) the T/C [7] was 108 % of control, the T/C [8] was 105 % of control and the T/C [9] was 105 % of control.

With `CSc1cccc(NC(=O)Oc2ccc([N+](=O)[O-])cc2Cl)c1` the T/C (dose: 6.25 mg/kg/injection, schedule: Q01DX009 (ip), vehicle: DMSO) was 100 % of control and the T/C (dose: 12.5 mg/kg/injection, schedule: Q01DX009 (ip), vehicle: DMSO) was 93 % of control.

With `O=C1OCC/C1=C1/NC2CCCCC2NC1=O` (stereo unspecified) the T/C [10] was 94 % of control and the T/C [11] was 94 % of control.

`CS(=O)(=O)OCCBr` was tested, and the T/C (dose: 12.5 mg/kg/injection, schedule: Q01DX009 (ip), vehicle: saline with Tween-80) was 105 % of control, the T/C [4] was 108 % of control and the T/C (dose: 25.0 mg/kg/injection, schedule: Q01DX009 (ip), vehicle: saline with Tween-80) was 105 % of control. The T/C [5] was 110 % of control, the T/C [10] was 114 % of control and the T/C (dose: 100.0 mg/kg/injection, schedule: Q01DX001 (ip), vehicle: saline with Tween-80) was 103 % of control. The T/C [6] was 106 % of control and the T/C [11] was 116 % of control.

With `CCc1ccc(C(=O)N/N=C(\C)[C@]2(O)Cc3c(O)c4c(c(O)c3[C@@H](OC3CC(N)C(O)C(C)O3)C2)C(=O)c2c(OC)cccc2C4=O)cc1` (stereo partly specified) the T/C (dose: 0.12 mg/kg/injection, schedule: Q01DX009 (ip), vehicle: water) was 111 % of control, the T/C (dose: 1.0 mg/kg/injection, schedule: Q01DX009 (ip), vehicle: water) was 154 % of control and 163 % of control and the T/C (dose: 2.0 mg/kg/injection, schedule: Q01DX009 (ip), vehicle: water) was 160 % of control and 175 % of control. For the same molecule, the T/C (dose: 4.0 mg/kg/injection, schedule: Q01DX009 (ip), vehicle: water) was 151 % of control and 175 % of control and the T/C (dose: 8.0 mg/kg/injection, schedule: Q01DX009 (ip), vehicle: water) was 86 % of control and 93 % of control.

With `Cc1cc(NC(=S)SC(C)C)ccc1Cl` the T/C [1] was 99 % of control, the T/C [2] was 102 % of control and the T/C [3] was 102 % of control.

In the case of `N#Cc1c(N2CCOCC2)c(-c2ccccc2)c(N2CCOCC2)n2c1nc1ccccc12`, the T/C [7] is reported as 90 % of control, the T/C [8] is reported as 96 % of control and the T/C [9] is reported as 87 % of control.

For `CCOc1c(N=Nc2ccccc2C)c(C)nn1C(N)=S`, the T/C (dose: 60.0 mg/kg/injection, schedule: Q01DX005 (ip), vehicle: Klucel + Tween-80) was 100 % of control, the T/C (dose: 120.0 mg/kg/injection, schedule: Q01DX005 (ip), vehicle: Klucel + Tween-80) was 97 % of control and the T/C (dose: 240.0 mg/kg/injection, schedule: Q01DX005 (ip), vehicle: Klucel + Tween-80) was 100 % of control.

With `Cc1c(O)cccc1O` the T/C [2] was 105 % of control.

`O=C1C=C(NCCCC2CCCN3CCCCC23)C(=O)c2ccccc21` (stereo unspecified) was tested, and the T/C (dose: 6.25 mg/kg/injection, schedule: Q01DX005 (ip), vehicle: Klucel (hydroxypropylcellulose) (HPC)) was 95 % of control, the T/C (dose: 12.5 mg/kg/injection, schedule: Q01DX005 (ip), vehicle: Klucel (hydroxypropylcellulose) (HPC)) was 98 % of control and the T/C [12] was 98 % of control.

In the case of `CCC12CCC(=O)C=C1CCCC2=O` (stereo unspecified), the T/C (dose: 25.0 mg/kg/injection, schedule: Q01DX009 (ip), vehicle: saline sonified) is reported as 104 % of control, the T/C (dose: 50.0 mg/kg/injection, schedule: Q01DX009 (ip), vehicle: saline sonified) is reported as 86 % of control and the T/C (dose: 100.0 mg/kg/injection, schedule: Q01DX009 (ip), vehicle: saline sonified) is reported as 109 % of control.

In the case of `CN(C)c1ccc(/C=C/c2ccc3ccccc3[n+]2C)cc1`, the T/C (dose: 1.0 mg/kg/injection, schedule: Q01DX009 (ip), vehicle: saline sonified) is reported as 123 % of control, the T/C (dose: 1.5 mg/kg/injection, schedule: Q01DX009 (ip), vehicle: saline sonified) is reported as 123 % of control and the T/C (dose: 2.3 mg/kg/injection, schedule: Q01DX009 (ip), vehicle: saline sonified) is reported as 119 % of control. For the same molecule, the T/C (dose: 6.25 mg/kg/injection, schedule: Q04DX003 (ip), vehicle: saline sonified) was 100 % of control, the T/C (dose: 12.5 mg/kg/injection, schedule: Q04DX003 (ip), vehicle: saline sonified) was 109 % of control and the T/C (dose: 25.0 mg/kg/injection, schedule: Q04DX003 (ip), vehicle: saline sonified) was 113 % of control.

With `NC(Cc1c[nH]c(=O)[nH]c1=O)C(=O)O` (stereo unspecified) the T/C [13] was 96 % of control, the T/C [14] was 100 % of control and the T/C (dose: 200.0 mg/kg/injection, schedule: Q01DX005 (ip), vehicle: Klucel (hydroxypropylcellulose) (HPC)) was 88 % of control.

For `Cc1cc(O)cc(O)c1C(=O)OC1C[C@@]2(C)C1=C(CO)C[C@@H]1CC(C)(C)C[C@@H]12` (stereo partly specified), the T/C (dose: 1.25 mg/kg/injection, schedule: Q01DX005 (ip), vehicle: Klucel (hydroxypropylcellulose) (HPC)) was 96 % of control, the T/C (dose: 2.5 mg/kg/injection, schedule: Q01DX005 (ip), vehicle: Klucel (hydroxypropylcellulose) (HPC)) was 99 % of control and the T/C (dose: 5.0 mg/kg/injection, schedule: Q01DX005 (ip), vehicle: Klucel (hydroxypropylcellulose) (HPC)) was 96 % of control. The T/C (dose: 10.0 mg/kg/injection, schedule: Q01DX005 (ip), vehicle: Klucel (hydroxypropylcellulose) (HPC)) was 96 % of control, the T/C (dose: 20.0 mg/kg/injection, schedule: Q01DX005 (ip), vehicle: Klucel (hydroxypropylcellulose) (HPC)) was 100 % of control and the T/C (dose: 40.0 mg/kg/injection, schedule: Q01DX005 (ip), vehicle: Klucel (hydroxypropylcellulose) (HPC)) was 106 % of control. The T/C (dose: 80.0 mg/kg/injection, schedule: Q01DX005 (ip), vehicle: Klucel (hydroxypropylcellulose) (HPC)) was 112 % of control and the T/C (dose: 160.0 mg/kg/injection, schedule: Q01DX005 (ip), vehicle: Klucel (hydroxypropylcellulose) (HPC)) was 104 % of control.

`O=C1C=CC(=Nc2cccc3c(N=C4C=CC(=O)O4)cccc23)O1` was tested, and the T/C [12] was 107 % of control, the T/C [13] was 111 % of control and the T/C [14] was 115 % of control.
